Source: patent US7790896B2, “RNA-selective probes for live cell imaging of nuclear structure and function” (New York University, priority 2006, dated 2010)

Tested on: RNA (Type VI from torula yeast)
Assay: In vitro solution assay (primary screening): fluorescent emission fold change upon binding to RNA
Settings: dye 10 μM, RNA 500 μg/mL in TE buffer
Protocol: (§1) The fluorescence spectra data in the primary screening and selected dyes titration assay study was obtained by Gemini XS plate reader. RNA solution was prepared right before the assay experiments to avoid possible degradation and contamination. In the primary screening, 1 mg/mL RNA (type VI from torula yeast) buffer solution was used. Point scans were carried out first using five Ex/Em point sets ([…], 400/500, 450/550, 500/600, 550/650 nm). Spectra scans were then carried out for the selected dyes. Excitation wavelengths were set at 350 nm, 400 nm, 450 nm, 500 nm, and 550 nm and the emission wavelengths were scanned. RNA (16S- and 23S-ribosomal from E. coli) and DNA (salmon testes) titration experiments and quantum yield/extinction coefficient determination for the three best dyes were carried out by the plate reader as well. Excitation λmax obtained from F-2500 Hitachi Fluorophotometer was used. Absorbance wavelength was determined by SpectraMax Plus^384 absorbance plate reader. […] was chosen as standard and 480 nm was used as excitation wavelength in the scanning for quantum yield determination.
The screening strategy used in this study is illustrated in FIG. 2. Both in vitro RNA assays and live cell imaging methods were utilized in the primary screening of the dye library. Selective binding of the dye to RNA in solution was the primary criterion for selecting lead compounds for subsequent bioimaging studies, Herein, the library dyes' fluorescent emission intensity fold change upon binding to RNA was measured in solution. Dyes showing five-fold or higher emission changes in the presence of RNA were selected (Table 3). Note the dyes listed are identified by the building blocks I and II from Table 2. For example, A4 is the product made by reacting compound A from the list of Building block I and compound 4 from the list of Building block II.

Em(nm) | Ex(nm) | Fold (fluorescent emission fold changes to RNA) | SMILES
610 nm | 500 nm | 17 | CCN(CC)c1ccc(C=Cc2cc[n+](C)cc2)c(C#N)c1 [Dye A132]
630 nm | 500 nm | 6 | Cc1cccc(/C=C/c2ccc(N(C)C)cc2)[n+]1C [Dye C22]
620 nm | 500 nm | 21 | Cn1c(C=Cc2ccc3ccccc3[n+]2C)cc2ccccc21 [Dye E108]
620 nm | 500 nm | 13 | CCn1c2ccccc2c2cc(C=Cc3cc[n+](C)c4ccccc34)ccc21 [Dye D107]
570 nm | 450 nm | 9 | COc1cc(OC)c(OC)cc1C=Cc1cccc(C)[n+]1C [Dye C8]
600 nm | 500 nm | 28 | CCN(CC)c1ccc(C=Cc2cccc[n+]2C)cc1 [Dye B92]
630 nm | 500 nm | 21 | Cn1c(/C=C/c2cc[n+](C)c3ccccc23)cc2ccccc21 [Dye D108]
660 nm | 500 nm | 103 | CN(C)c1ccc(C=Cc2cc[n+](C)cc2)c2ccccc12 [Dye A24]
610 nm | 500 nm | 52 | COc1ccc2c(ccc(C=Cc3cc(OC)c(OC)cc3OC)[n+]2C)c1.[I-] [Dye F8]
610 nm | 500 nm | 9 | Cc1cccc(/C=C/c2ccc(N(C)CCC#N)cc2)[n+]1C [Dye C9]
560 nm | 450 nm | 10 | C[n+]1ccc(C=Cc2c(O)ccc3ccccc23)cc1 [Dye A42]
580 nm | 450 nm | 8 | Cc1cccc(C=Cc2cc3ccccc3n2C)[n+]1C [Dye C108]
630 nm | 500 nm | 15 | CCN(CC)c1ccc(/C=C/c2cccc(C)[n+]2C)cc1 [Dye C92]
610 nm | 500 nm | 23 | CN(CCO)c1ccc(/C=C/c2cc[n+](C)cc2)cc1 [Dye A10]
640 nm | 500 nm | 20 | CCN(CC)c1ccc(C=Cc2ccc3cc(OC)ccc3[n+]2C)cc1 [Dye F92]
600 nm | 500 nm | 21 | CN(CCC#N)c1ccc(/C=C/c2cc[n+](C)cc2)cc1 [Dye A9]

Em(nm) | Ex(nm) | Fold (fluorescent emission fold changes to RNA) | SMILES
580 nm | 450 nm | 42 | COc1cc(/C=C/c2cc[n+](C)cc2)c(OCc2ccccc2)cc1OC [Dye A156]
590 nm | 450 nm | 8 | Cn1c(/C=C/c2cc[n+](C)cc2)cc2ccccc21 [Dye A108]
630 nm | 500 nm | 38 | COc1ccc2c(ccc(C=Cc3ccc(N(C)CCO)cc3)[n+]2C)c1 [Dye F10]
640 nm | 500 nm | 14 | CCN(CC)c1ccc(C=Cc2ccc3cc(OC)ccc3[n+]2C)c(C#N)c1 [Dye F132]
540 nm | 450 nm | 11 | C[n+]1ccc(/C=C/c2c[nH]c3ccccc23)cc1 [Dye A4]
610 nm | 500 nm | 28 | CN(C)c1ccc(C=Cc2cc[n+](C)cc2)cc1 [Dye A22]
620 nm | 500 nm | 17 | C[n+]1c(C=Cc2cc(Br)c(Cl)c(Br)c2)ccc2ccccc21 [Dye E111]
560 nm | 450 nm | 62 | COc1ccc2c(ccc(/C=C/c3c[nH]c4ccccc34)[n+]2C)c1 [Dye F4]
590 nm | 500 nm | 28 | CCN(CC)c1ccc(/C=C/c2cccc[n+]2C)c(C#N)c1 [Dye B132]
540 nm | 450 nm | 28 | Cc1cc(C=Cc2cc[n+](C)cc2)c(C)n1-c1cccc(C(F)(F)F)c1 [Dye A121]
530 nm | 450 nm | 26 | COc1cc(OC)c(C=Cc2cc[n+](C)cc2)c(OC)c1 [Dye A144]
560 nm | 450 nm | 10 | C[n+]1c(C=Cc2ccc3c(c2)OCO3)ccc2ccccc21 [Dye E43]
560 nm | 450 nm | 54 | COc1cc(/C=C/c2cccc[n+]2C)c(OCc2ccccc2)cc1OC [Dye B156]
580 nm | 450 nm | 37 | COc1cc(OC)c(OC)cc1/C=C/c1cc[n+](C)cc1 [Dye A8]
620 nm | 500 nm | 86 | COc1ccc2c(ccc(C=Cc3ccc(N(C)CCC#N)cc3)[n+]2C)c1 [Dye F9]
610 nm | 500 nm | 27 | COc1ccc2c(ccc(/C=C/c3cc4ccccc4n3C)[n+]2C)c1 [Dye F108]

Tested on: not listed separately
Assay: Fluorescence spectrum in TE buffer of dyes selected from live cell imaging
Type: physicochemical
Settings: dye 10 μM in TE buffer
Protocol: as §1

SPECTRUM EM | SPECTRUM EX | SMILES
470 nm | 350 nm | COc1ccc2c(ccc(C=Cc3ccccc3Br)[n+]2C)c1 [Dye F47]
540 nm | 400 nm | COC(=O)c1cc(OC)cc(OC)c1C=Cc1ccc2cc(OC)ccc2[n+]1C [Dye F145]
460 nm | 350 nm | COc1ccc2c(ccc(/C=C/C=C/c3ccccc3OC)[n+]2C)c1 [Dye F97]
490 nm | 400 nm | COc1ccc2c(ccc(/C=C/c3ccco3)[n+]2C)c1 [Dye F45]
550 nm | 450 nm | COc1ccc2c(ccc(/C=C/c3cc(I)ccc3O)[n+]2C)c1 [Dye F120]
530 nm | 400 nm | Cc1ccc2ccccc2c1/C=C/c1cc[n+](C)c2ccccc12 [Dye D143]
550 nm | 450 nm | COc1ccc2c(ccc(/C=C/C3CCCN3C)[n+]2C)c1 (stereo not drawn) [Dye F74]
440 nm | 350 nm | COc1ccc2c(ccc(/C=C/c3ccc(Br)s3)[n+]2C)c1 [Dye F77]
550 nm | 450 nm | C[n+]1c(C=Cc2cc(C(C)(C)C)ccc2O)ccc2ccccc21 [Dye E73]
470 nm | 350 nm | CCCCCC(/C=C/c1ccc2cc(OC)ccc2[n+]1C)=C\c1ccccc1 [Dye F101]
570 nm | 450 nm | COc1ccc(-c2ccc(/C=C/c3cccc[n+]3C)o2)cc1Cl [Dye B139]
480 nm | 400 nm | COc1ccc2c(ccc(/C=C/c3ccoc3)[n+]2C)c1 [Dye F48]
520 nm | 400 nm | COc1ccc2c(ccc(/C=C/c3ccccc3OCC(=O)O)[n+]2C)c1 [Dye F116]
540 nm | 450 nm | COc1ccc2c(ccc(/C=C/c3ccc(OC)c(O)c3Cl)[n+]2C)c1 [Dye F155]
510 nm | 400 nm | COc1ccc2c(ccc(/C=C/c3cccc(Br)n3)[n+]2C)c1 [Dye F128]
470 nm | 400 nm | COc1ccc2c(ccc(/C=C/c3c(C)cc(C)cc3C)[n+]2C)c1 [Dye F85]
540 nm | 400 nm | COc1ccc2c(ccc(/C=C/c3cc(Br)ccc3OC)[n+]2C)c1 [Dye F137]
450 nm | 350 nm | COc1ccc(Oc2cccc(/C=C/c3ccc4ccccc4[n+]3C)c2)cc1 [Dye E83]
590 nm | 450 nm | COc1ccc2c(ccc(C=Cc3ccc4c5c(cccc35)CC4)[n+]2C)c1 [Dye F118]
590 nm | 450 nm | COc1ccc2c(ccc(/C=C/c3ccc(OC)c4ccccc34)[n+]2C)c1 [Dye F41]
470 nm | 350 nm | C[n+]1c(/C=C/c2ccc(Br)s2)ccc2ccccc21 [Dye E77]
490 nm | 400 nm | COc1ccc2c(ccc(/C=C/c3cccc(C(F)(F)F)c3)[n+]2C)c1 [Dye F82]
560 nm | 450 nm | COc1ccc2c(ccc(C=Cc3ccc4c(c3)OCO4)[n+]2C)c1 [Dye F43]
550 nm | 450 nm | COc1ccc2c(ccc(C=Cc3c(C)ccc4ccccc34)[n+]2C)c1 [Dye F143]
